According to patent EP2787958B1, “CHELIDONIUM MAJUS EXTRACTS AND THEIR USE IN THE TREATMENT OF SKIN DISORDERS AND PROMOTION OF SKIN REGENERATION” (priority 2011, dated 2013):
Read-outs that look alike come from different tables or passages of the source. Values belong to the molecule of their own block, whether it stands above or below them.

Key:
HDF cells [1] = experiment: Summary of uses and toxic effects deduced from the cell assays (Table 1); assay type: cell-based, Human
Procedure, shortened: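 HDF cells exposed to test substances at a given dosage for 24 h; uses and toxicity inferred from free-radical scavenging, mitochondrial dehydrogenase activity, IL-1β/IL-6 production (basal or induced by 100 µM H2O2), proliferation under standard growth conditions, and senescence-like morphology.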

interleukin 1β (IL-1β) = experiment: Inflammatory cytokines in cell supernatant (Mosaic ELISA microarray): IL-1β; assay type: cell-based, Human; settings: for IL-1β ng/(ml* No. of cells from photo) ± SD: 24 hours; for IL-1β production (effect in words): 1-10 µM
[2] = tested on: Human dermal fibroblasts (HDF); experiment: Mitochondrial dehydrogenase activity (WST-1 formazan assay) in HDF cells; settings: for activity at 1 µM / activity at 10 µM / activity at 7.3 µM: Homo sapiens, Fibroblast, read-out: % mitochondrial dehydrogenase activity ± SD; for Revitalizing agent: 24 hours
HDF cells [3] = experiment: Evaluation of cell proliferation (counting of Sirius Red stained cells in photographs); settings: 24 hours
HDF cells [4] = experiment: Evaluation of cell morphology (Sirius Red stained cells, microscopy); assay type: cell-based, Human
Description: Their morphology, colour and shape have been evaluated by using the ImageJ software program.
The results of the effects on cell morphology, produced by the treatment with the test compounds for 24 hours at the concentrations specified, in HDF cells stained for collagen with PSR are shown in Figures 4a-d, 5a-d and 6a-f. These Figures allow evaluating cell morphology through light microscopy observation at magnifications of 100x, 200x and 400x for HDF cells cultured under standard growth conditions, in the presence of 100 µM H2O2 and in the presence of 34 ng/ml TGF-β1.

interleukin 6 (IL-6) = experiment: Inflammatory cytokines in cell supernatant (Mosaic ELISA microarray): IL-6; assay type: cell-based, Human; settings: for IL-6 ng/(ml* No. of cells from photo) ± SD: 24 hours; for IL-6 production (effect in words): 1-10 µM
[5] = tested on: collagen produced by HDF cells; experiment: Quantity of collagen produced by the cells (elution of Sirius Red)
[6] = Anti-radical activity (decay of the DPPH radical); assay type: biochemical; settings: for Anti-radical (skin protective): 24 hours
Procedure, shortened: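 Test substance in ethanol mixed 1:1 with 200 µM DPPH (stock concentrations), in quadruplicate. Absorbance read at 530 nm after 30 min, with vitamin C and ethanol-only controls. IC50 from variable-slope Hill regression of dose-activity curves.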

[7] = Dose 1 µm (coptisine: 1 pm [sic]), 24 hours
[8] = Dose 1 µm (coptisine: 1 pm [sic])

Structure (SMILES): C[n+]1cc2c3c(ccc2c2ccc4cc5c(cc4c21)OCO5)OCO3 [sanguinarine]
Cytotoxic (HDF cells [1]; [7]): Yes (senescent morph., ↓dehydrogenase)
Irritant (HDF cells [1]; [7]): Yes (↑IL-6, ↑IL-1β)
Cytotoxic (HDF cells [1]; Dose 10 µm, 24 hours): Yes (cell death, ↓dehydrogenase)
Irritant (HDF cells [1]; Dose 10 µm, 24 hours): Yes (↑IL-6, ↑IL-1β)
concentrations at which toxic (cytotoxic and irritant) effects are shown (HDF cells [1]; exposure for 24 hours): greater than or equal to 1 µM
IL-1β ng/(ml* No. of cells from photo) ± SD (interleukin 1β (IL-1β); 1 µM, 34 ng/ml TGF-β1): 297±13 ng/(ml* No. of cells from photo)
IL-1β ng/(ml* No. of cells from photo) ± SD (interleukin 1β (IL-1β); 1 µM, 100 µM H2O2): 253±9 ng/(ml* No. of cells from photo)
IL-1β ng/(ml* No. of cells from photo) ± SD (interleukin 1β (IL-1β); 1 µM, Standard conditions): 75±1 ng/(ml* No. of cells from photo)
IL-1β ng/(ml* No. of cells from photo) ± SD (interleukin 1β (IL-1β); 10 µM, 34 ng/ml TGF-β1): 16400±5000 ng/(ml* No. of cells from photo)
IL-1β ng/(ml* No. of cells from photo) ± SD (interleukin 1β (IL-1β); 10 µM, 100 µM H2O2): 18400±2800 ng/(ml* No. of cells from photo)
IL-1β ng/(ml* No. of cells from photo) ± SD (interleukin 1β (IL-1β); 10 µM, Standard conditions): 4535±81 ng/(ml* No. of cells from photo)
concentrations above which marked inhibition of mitochondrial dehydrogenase activity is caused ([2]; 18 h and 42 h): higher than 1 µM
activity at 1 µM ([2]; 18 h): 83.3 ± 6.83%
activity at 10 µM ([2]; 18 h): -1.57 ± 1.65%
activity at 1 µM ([2]; 42 h): -2.8 ± 3.67%
activity at 10 µM ([2]; 42 h): -16.6 ± 2.55%
No. of cells from photo ± SD (HDF cells [3]; 1 µM, 34 ng/ml TGF-β1): 86±7
No. of cells from photo ± SD (HDF cells [3]; 1 µM, 100 µM H2O2): 110±18
No. of cells from photo ± SD (HDF cells [3]; 1 µM, Standard conditions): 30±9
No. of cells from photo ± SD (HDF cells [3]; 10 µM, 34 ng/ml TGF-β1): 1±0
No. of cells from photo ± SD (HDF cells [3]; 10 µM, 100 µM H2O2): 1±0
No. of cells from photo ± SD (HDF cells [3]; 10 µM, Standard conditions): 1±0
cell morphology (HDF cells [4]; 1 µM): senescent morphology
cell morphology (HDF cells [4]; 10 µM): complete absence of cells
IL-6 ng/(ml* No. of cells from photo) ± SD (interleukin 6 (IL-6); 1 µM, 34 ng/ml TGF-β1): 2167±279 ng/(ml* No. of cells from photo)
IL-6 ng/(ml* No. of cells from photo) ± SD (interleukin 6 (IL-6); 1 µM, 100 µM H2O2): 2374±264 ng/(ml* No. of cells from photo)
IL-6 ng/(ml* No. of cells from photo) ± SD (interleukin 6 (IL-6); 1 µM, Standard conditions): 470±32 ng/(ml* No. of cells from photo)
IL-6 ng/(ml* No. of cells from photo) ± SD (interleukin 6 (IL-6); 10 µM, 34 ng/ml TGF-β1): 56600±9000 ng/(ml* No. of cells from photo)
IL-6 ng/(ml* No. of cells from photo) ± SD (interleukin 6 (IL-6); 10 µM, 100 µM H2O2): 66300±5000 ng/(ml* No. of cells from photo)
IL-6 ng/(ml* No. of cells from photo) ± SD (interleukin 6 (IL-6); 10 µM, Standard conditions): 17786±27 ng/(ml* No. of cells from photo)

IC50 ([6]; anti-radical activity, Hill equation): 62 µM
Structure (SMILES): COc1ccc2c(c1OC)CN1CCc3cc4c(cc3C1=C2)OCO4 [dihydroberberine]
Cytotoxic (HDF cells [1]): No
Anti-fibrotic (prevention of scar formation, also from acne) (HDF cells [1]; [7]): Yes (↓collagen)
Cytoprotective (antioxidant, anti-inflammatory and anti-ageing; useful also in the treatment of acne) (HDF cells [1]; [7]): No
Wound-healing (HDF cells [1]; [7]): No
Anti-fibrotic (prevention of scar formation, also from acne) (HDF cells [1]; Dose 7.3 µm, 24 hours): Yes (↓collagen)
Cytoprotective (antioxidant, anti-inflammatory and anti-ageing; useful also in the treatment of acne) (HDF cells [1]; Dose 7.3 µm, 24 hours): No
Cytotoxic (HDF cells [1]; Dose 7.3 µm, 24 hours): No
Irritant (HDF cells [1]; Dose 7.3 µm, 24 hours): Yes (↑IL-6, ↑IL-1β)
Wound-healing (HDF cells [1]; Dose 7.3 µm, 24 hours): No
concentrations at which toxic (irritant) effects are shown (HDF cells [1]; exposure for 24 hours): greater than or equal to 1 µM
Irritant (HDF cells [1]; human, 24 h, 1 µm): Yes (↑IL-6, ↑IL-1β)
IL-1β ng/(ml* No. of cells from photo) ± SD (interleukin 1β (IL-1β); 1 µM, 34 ng/ml TGF-β1): 99±10 ng/(ml* No. of cells from photo)
IL-1β ng/(ml* No. of cells from photo) ± SD (interleukin 1β (IL-1β); 1 µM, 100 µM H2O2): 164±1 ng/(ml* No. of cells from photo)
IL-1β ng/(ml* No. of cells from photo) ± SD (interleukin 1β (IL-1β); 1 µM, Standard conditions): 108±1 ng/(ml* No. of cells from photo)
IL-1β ng/(ml* No. of cells from photo) ± SD (interleukin 1β (IL-1β); 7.3 µM, 34 ng/ml TGF-β1): 129±1 ng/(ml* No. of cells from photo)
IL-1β ng/(ml* No. of cells from photo) ± SD (interleukin 1β (IL-1β); 7.3 µM, 100 µM H2O2): 212±18 ng/(ml* No. of cells from photo)
IL-1β ng/(ml* No. of cells from photo) ± SD (interleukin 1β (IL-1β); 7.3 µM, Standard conditions): 125±2 ng/(ml* No. of cells from photo)
IL-1β production (effect in words) (interleukin 1β (IL-1β); 34 ng/ml TGF-β1): antagonizes the stimulation of IL-1β induced by 34 ng/ml TGF-β1
IL-1β production (effect in words) (interleukin 1β (IL-1β); 100 µM H2O2): tendency to increase IL-1β production in a dose-dependent manner
IL-1β production (effect in words) (interleukin 1β (IL-1β); standard conditions): tendency to increase IL-1β production in a dose-dependent manner
collagen production (effect in words) ([5]; 1-10 µM (1 µM and 10 µM), 34 ng/ml TGF-β1): antagonizes the stimulation of collagen induced by 34 ng/ml TGF-β1
collagen production (effect in words) ([5]; 1-10 µM (1 µM and 10 µM), 100 µM H2O2): stimulates collagen production in a dose-dependent manner
collagen production (effect in words) ([5]; 1-10 µM, standard conditions): stimulates collagen production in a dose-dependent manner
concentrations below which no significant effects on mitochondrial dehydrogenase activity are shown [2]: below 0.1 µM
mitochondrial dehydrogenase activity (effect in words) ([2]; 100 µM): reduced
mitochondrial dehydrogenase activity (effect in words) ([2]; 1 and 10 µM, 18 h and 42 h, more marked at 42 h): increased with respect to the control
Revitalizing agent [2, 8]: Yes
Revitalizing agent ([2]; Dose 7.3 µm): Yes
activity at 1 µM ([2]; 18 h): 131 ± 5.4%
activity at 7.3 µM ([2]; 18 h): 128 ± 13.8%
activity at 1 µM ([2]; 42 h): 143 ± 14.1%
activity at 7.3 µM ([2]; 42 h): 137 ± 17.6%
activity at 1 µM ([2]; 46 h): 121 ± 19.6%
activity at 7.3 µM ([2]; 46 h): 192 ± 24.4%
mitochondrial dehydrogenase activity (effect in words) ([2]; fibroblast cells, higher doses): inhibit mitochondrial dehydrogenase activity
mitochondrial dehydrogenase activity (effect in words) ([2]; fibroblast cells, low dosage): stimulate mitochondrial dehydrogenase activity
No. of cells from photo ± SD (HDF cells [3]; 1 µM, 34 ng/ml TGF-β1): 232±13
No. of cells from photo ± SD (HDF cells [3]; 1 µM, 100 µM H2O2): 146±26
No. of cells from photo ± SD (HDF cells [3]; 1 µM, Standard conditions): 160±18
No. of cells from photo ± SD (HDF cells [3]; 7.3 µM, 34 ng/ml TGF-β1): 193±27
No. of cells from photo ± SD (HDF cells [3]; 7.3 µM, 100 µM H2O2): 108±3
No. of cells from photo ± SD (HDF cells [3]; 7.3 µM, Standard conditions): 129±13
anti-radical effects (in words) ([6]; 1 mM): shows anti-radical effects
% DPPH activity ([6]; 1 mM, 30 minutes): 55%
Anti-radical (skin protective) [6, 8]: Yes
Anti-radical (skin protective) ([6]; Dose 7.3 µm): Yes
IL-6 ng/(ml* No. of cells from photo) ± SD (interleukin 6 (IL-6); 1 µM, 34 ng/ml TGF-β1): 512±25 ng/(ml* No. of cells from photo)
IL-6 ng/(ml* No. of cells from photo) ± SD (interleukin 6 (IL-6); 1 µM, 100 µM H2O2): 1328±2 ng/(ml* No. of cells from photo)
IL-6 ng/(ml* No. of cells from photo) ± SD (interleukin 6 (IL-6); 1 µM, Standard conditions): 541±24 ng/(ml* No. of cells from photo)
IL-6 ng/(ml* No. of cells from photo) ± SD (interleukin 6 (IL-6); 7.3 µM, 34 ng/ml TGF-β1): 704±60 ng/(ml* No. of cells from photo)
IL-6 ng/(ml* No. of cells from photo) ± SD (interleukin 6 (IL-6); 7.3 µM, 100 µM H2O2): 1685±444 ng/(ml* No. of cells from photo)
IL-6 ng/(ml* No. of cells from photo) ± SD (interleukin 6 (IL-6); 7.3 µM, Standard conditions): 534±39 ng/(ml* No. of cells from photo)
IL-6 production (effect in words) (interleukin 6 (IL-6); 34 ng/ml TGF-β1): tendency to antagonise the stimulation of IL-6 induced by TGF-β1
IL-6 production (effect in words) (interleukin 6 (IL-6); 100 µM H2O2): significant effects in modulating IL-6 production
IL-6 production (effect in words) (interleukin 6 (IL-6); standard conditions): significant effects in modulating IL-6 production
